US9464291B2, “Methods and compositions for the treatment of cancer” (University of South Alabama, priority 2012, dated 2016)
Several values for one entry are separate records, joined by “and”; a condition that tells them apart may be missing. Equal entries are not always repeated. Entries after “also recorded” stand apart in the source; their conditions may differ. Where two headings read alike, the source gives them in different places.

What was measured:
A2780-CP70 cells [1] = assay: Cisplatin cell growth / cell killing curves in A2780-CP70 cells; type: cell-based, human; details: cisplatin alone (lipofectamine only / control cells)
Experimental: A2780-CP70 cells were transfected with 0.07 μg/well anti-Gli1 shRNA construct or control. Transfected cells were treated with 0 μM, 10 μM, 30 μM, and 100 μM cisplatin at 24 hr post-transfection. Percent cell growth was determined relative to control cells. […] In another experiment, A2780-CP70 cells were transfected with 0.02 μg/well or 0.07 μg/well anti-Gli1 shRNA construct. Transfected cells were treated with 0 μM, 2 μM, 5 μM, 10 μM, 30 μM, and 50 μM cisplatin at 24 hr post-transfection. Percent cell growth was determined relative to control cells (FIG. 52B).
Control cells were treated with cisplatin only. Percent cell growth was determined relative to control cells.

c-jun = c-jun mRNA (semi-quantitative PCR) and protein (Western blot) in A2780-CP70 cells; type: cell-based, human; details: A2780-CP70
Experimental: Controls included α-tubulin and histone deacetylase 3. C-jun antibody recognizes non-phosphorylated c-jun protein.
c-jun and c-fos mRNA expression was examined in A2780-CP70 cells transfected with anti-GLI1 shRNA construct at 6 hr, 24 hr, 48 hr, and 72 hr post-transfection using semi-quantative PCR analysis (FIG. 41).
A2780-CP70 cells were transfected with an IC50 dose of anti-Gli1 shRNA (treated) construct or vector (control). Total intracellular c-jun mRNA and c-jun protein was measured at 6 hr, 24 hr, 48 hr, and 72 hr.
C-jun mRNA and protein levels were further examined in cisplatin-resistant A2780-CP70 cells treated with an IC50 dose of anti-Gli1 shRNA. FIG. 78 depicts mRNA levels (panel A) and protein levels (panel B) in cells at 6, 24, 48, and 72 hours post-treatment.

ERCC1, XPD, XRCC1 [2] = assay: ERCC1, XPD, XRCC1 mRNA / protein levels in A2780-CP70 cells; type: cell-based, human
[3] = system: c-jun (Ser 63, Ser 73, Thr 91, Thr 93); assay: c-jun protein phosphorylation, Western blot, A2780-CP70 cells; type: cell-based, human; details: 72 hr observation
Experimental: Protein levels for c-jun, c-fos, phosphorylated c-jun (Ser 63), phosphorylated c-jun (Ser 73), and phosphorylated c-jun (Thr 91, Thr 93) were tested in cytosolic, nuclear, and whole cell fractions at 0 hr, 6 hr, 24 hr, 48 hr, and 72 hr. Internal controls for cytosolic and nuclear fractions included α-tubulin and histone deacetylase 3.
Phosphorylation of c-jun in A2780-CP70 cells transfected with anti-GLI1 shRNA construct was assessed using Western blot analysis. Protein levels for c-jun, phosphorylated c-jun (Ser 63), phosphorylated c-jun (Ser 73), and phosphorylated c-jun (Thr 91, Thr 93) were examined at 0 hr, 6 hr, 24 hr, 48 hr, and 72 hr.
A2780-CP70 cells were treated with an IC50 dose of cisplatin and an IC50 dose of anti-Gli1 shRNA.

A2780-CP70 cells [4] = details: cisplatin-resistant A2780-CP70; cited from earlier work
ERCC1, XPD, XRCC1 [5] = details: cells treated with cisplatin only; cited from earlier work
[6] = system: c-jun (Ser 63, Ser 73, Thr 91, Thr 93); details: A2780-CP70; 3-5 hr after cisplatin treatment; cited from earlier work

**Q.** Which IC50 (A2780-CP70 cells [1]) does the source give for `N.N.[Cl][Pt][Cl]` [cisplatin] here?
**A.** Its IC50 is 30 µM and 28 µM.

**Q.** What about the “time of peak c-jun level” value (c-jun; IC50 dose of agent) of the same molecule?
**A.** Its value is 6 h.

**Q.** And the c-jun protein expression (c-jun; IC50 dose of cisplatin)?
**A.** The c-jun protein expression was “increased substantial”.

**Q.** What about the “time of highest ERCC1, XPD, XRCC1 mRNA levels after cisplatin exposure” value (ERCC1, XPD, XRCC1 [2]; A2780-CP70, cyclopamine pretreatment vs cisplatin alone) of the same molecule?
**A.** The value was 4 to 6 h.

**Q.** What about the “increase of ERCC1, XPD, and XRCC1 protein expression levels” value (ERCC1, XPD, XRCC1 [2]; cells treated with cisplatin) of the same molecule?
**A.** Its value is 5 fold.

**Q.** And the “expected rise of ERCC1 (as would XPD and XRCC1)” value (ERCC1, XPD, XRCC1 [2]; cisplatin alone (unpublished data))?
**A.** The value was “more than 6 fold”.

**Q.** What about the “c-jun phosphorylation at Ser63” value [3] of the same molecule?
**A.** The value was “increases specifically at Ser63 and Ser73”.

**Q.** What about the “c-jun phosphorylation at Thr91/93” value [3] of the same molecule?
**A.** The value was “do not change significantly; also recorded: did not significantly change”.

**Q.** And the IC50 (A2780-CP70 cells [4])?
**A.** Its IC50 is roughly 40 µM.

**Q.** What about the “expected increase in ERCC1 mRNA levels” value (ERCC1, XPD, XRCC1 [5]) of the same molecule?
**A.** The value was 6 fold.

**Q.** And the “peak c-jun phosphorylation over baseline” value [6]?
**A.** The value was 15 fold.
